{"source": "patent US20230257429A1", "about": "“PEPTIDE ADJUVANT FOR ITS THERAPEUTIC APPLICATIONS IN VIRAL AND TUMOUR VACCINE DEVELOPMENT AND CANCER IMMUNOTHERAPY AND AUTOIMMUNE DISEASE DIAGNOSIS AND TREATMENTS” (National University of Singapore, priority 2020, published 2023)", "molecules": {"B1": {"name": "NCL-P5 peptide, N-terminal biotin (peptide)", "peptide": "RGGRGGFGGRG", "modifications": "not fully specified (N-terminus)", "notes": "Synthetic peptide"}, "B2": {"name": "NCL-P4 peptide, N-terminal biotin (peptide)", "peptide": "RGGFGGRGGG", "modifications": "not fully specified (N-terminus)", "notes": "Synthetic peptide; also called NCL-4"}, "B3": {"name": "NCL-P3 control peptide (C-terminal 12 residues of NCL), N-terminal biotin (peptide)", "peptide": "DHKPQGKKTKFE", "modifications": "not fully specified (N-terminus)", "notes": "Synthetic peptide"}, "B4": {"name": "NCL-P1 peptide (32 residues), N-terminal biotin (peptide)", "peptide": "GGFGGRGGGRGGFGGRGGGRGGRGGFGGRGRG", "modifications": "not fully specified (N-terminus)", "notes": "Synthetic peptide"}, "B5": {"name": "IPA1E2-P2+G: P2+G synthesized in fusion with the 30-AA peptide antigen IPA1E2 (peptide)", "chain": "GQGQLVKRPKIMRFISHLWLALESANSEKRGGFGGRGGGRGGRGGFGGRGGRGGFGGRGGFRGGRGG", "modifications": "IPA1E2-P2+G", "notes": "P2+G synthesized in fusion with the 30-AA peptide antigen IPA1E2"}}, "key": {"PBMC [1]": {"system": "PBMC", "experiment": "Peptide binding to and penetration of PBMC, flow cytometry", "type": "cell-based, human", "settings": "1 hr at 4° C., fixed/permeabilized, streptavidin-AF488", "procedure": "PBMC re-suspended in 100 μl macrophage serum free media (3×10^6/ml) were incubated with different peptides (200 μg/ml). PBMC (100 μl) were incubated with the peptides for 1 hr at 37° C. or 4° C. Cells were washed twice in 2% FBS/PBS and incubated with streptavidin-AF488 and Zombie (NIR) Fixable viability stain-APC-Cy7 for 30 min at 4° C. Cells were then fixed with 1% PFA for 30 min at room temperature and analysed using the Fortessa analyser (BD). In some experiments, PBMC were, after incubation with peptides, incubated with Zombie (NIR) Fixable viability stain (APC-Cy7) for 30 min at 4° C. Cells were then fixed and permeabilized with BD CYTOFIX/CYTOPERM™ Kit for 20 min at 4° C., and then incubated with streptavidin-AF488 for 30 min at 4° C. In some experiments, PBMC were, after incubation with the peptides, stained with fluorescent mouse antibodies specific for monocytes (CD14/BV711), T cells (CD3/PerCP-Cy5-5) and B cells (CD19/Pacific blue). Cells were then stained with Zombie (NIR) Fixable viability stain-APC-Cy7 and streptavin-AF488, with or without membrane permeabilization. In these experiments, monocytes, T cells and B cells were separately gated to detect surface peptide binding and intracellular peptide penetration."}, "monocytes": {"system": "monocytes", "experiment": "Monocyte activation, TNFα and IL-1β ELISA", "type": "cell-based, human", "settings": "for TNFα induction from monocytes (7 NCL peptides): peptides 50 or 200 μg/ml", "procedure": "Buffy coat fractions were obtained from healthy blood donors at the Singapore Health Sciences Authority, with Institutional ethics approval, and PBMC were isolated using Ficoll-Paque (GE Healthcare). To isolate monocytes, PBMC were re-suspended to 1×10^7 cells/ml in the RPMI medium contained 5% (v/v) BCS and incubated for 1 hr in T75 flasks (20 ml/flask). Monocytes that adhered were harvested. To culture macrophages and DC [Cao, W., et al., Blood 107: 2777-2785, (2006), incorporated herein by reference], monocytes were resuspended to 1×10^6 cells/ml and cultured in 6-well plates (2 ml/well). Macrophages were cultured by adding M-CSF to 20 ng/ml and DC were cultured with 20 ng/ml GM-CSF and 40 ng/ml IL-4. M-CSF, GM-CSF and IL-4 were obtained from R&D Systems (Mineapolis, Minn.). Cells were cultured for 6 days with half of the media being replenished every two days.\n[…] Where TLR ligands were used to stimulate these cells, they were added to the media: LPS (500 ng/ml for DC and macrophages and 10 ng/ml for PMBC and monocytes, InvivoGen), flagellin (1 μg/ml, InvivoGen), lipoteichic acid (LTA, 10 μg/ml). Cell activation was determined by measuring TNFα and IL-1β in the culture media using ELISA kits (Invitrogen)."}, "TLR2 [2]": {"target": "T1, TLR2 (Homo sapiens, UniProt O60603)", "experiment": "TLR2 binding assay (ELISA plate)", "parameters": "purchased R&D Systems", "settings": "for peptide binding to coated TLR2: biotin peptides at increasing concentrations"}, "PBMC [3]": {"system": "PBMC", "experiment": "PBMC activation, TNFα and IL-1β ELISA", "type": "cell-based, human", "parameters": "PBMC activation (TNFα) by FBRL peptides: dose or concentration left out as unconfirmed", "settings": "peptides added to 50 or 160, 24 hr"}, "TLR2 [4]": {"target": "T1, TLR2", "experiment": "TLR and NF-κB-luciferase assay in 293T cells, TLR2/TLR1/TLR6/TLR10", "type": "cell-based", "parameters": "expressed in transfected cells; host or cells: human embryonic kidney 293T cells", "settings": "peptides 200 μg/ml, 24 hr", "procedure": "TLR-mediated NF-κB activation was determined using a Dual Luciferase Reporter Assay (Promega), in which two luciferase reporter plasmids were used. […] Transfection was performed using the TurboFect Transfection Reagent (Thermo Fisher Scientific). After 24 hr, cells were harvested and cultured for 24 hr in 96-well plates coated with the purified proteins or, as controls, cultured in blank plates but stimulated with TLR ligands. Cells were lysed to measure both firefly and Renilla luciferase activities and, in each sample, the firefly activity was normalized to the Renilla luciferase activity and expressed as relative NF-κB activation.\nTLRs and, where it required, co-receptors were co-transfected in a total of 4 combinations, i.e. TLR2/1/6/10, TLR4/CD14/MD2, TLR5, or TLR3/7/8/9. Two luciferase expression vectors were used: one expresses the firefly luciferase under 5 repeats of the NF-κB gene promoter and the other expresses the Renilla luciferase under the constitutively active CMV promoter (FIG. 3A)."}, "[5]": {"target": "T2, Recombinant human TLR2-10×His (R&D Systems) (human, UniProt O60603 21-590)", "T2 construct": "Bought protein; also called His-tagged TLR2", "T2 sequence (O60603 other isoform, or with tags, fused parts or gaps limits assumed)": "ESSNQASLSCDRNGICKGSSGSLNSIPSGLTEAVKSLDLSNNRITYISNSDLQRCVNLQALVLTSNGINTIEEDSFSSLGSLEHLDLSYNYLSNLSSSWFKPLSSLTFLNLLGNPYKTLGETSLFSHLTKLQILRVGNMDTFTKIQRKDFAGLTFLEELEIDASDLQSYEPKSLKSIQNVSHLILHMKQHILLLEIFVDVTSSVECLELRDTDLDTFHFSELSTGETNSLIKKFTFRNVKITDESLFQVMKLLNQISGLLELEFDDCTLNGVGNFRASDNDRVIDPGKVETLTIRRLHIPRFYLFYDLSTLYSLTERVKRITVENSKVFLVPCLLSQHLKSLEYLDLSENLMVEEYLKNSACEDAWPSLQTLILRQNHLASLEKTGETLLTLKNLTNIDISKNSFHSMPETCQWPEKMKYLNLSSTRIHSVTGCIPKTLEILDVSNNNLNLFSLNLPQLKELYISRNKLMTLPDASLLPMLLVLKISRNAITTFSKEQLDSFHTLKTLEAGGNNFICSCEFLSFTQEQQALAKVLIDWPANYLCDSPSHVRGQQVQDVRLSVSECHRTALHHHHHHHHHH", "experiment": "ELISA: biotin peptide on coated TLR2"}, "[6]": {"system": "autologous CD4 and CD8 T cells", "experiment": "Antigen-loaded DC co-culture with autologous lymphocytes, proliferation", "type": "cell-based, human", "settings": "DC:T 1:5, 2 weeks co-culture, CellTrace Violet", "procedure": "PBMC were isolated from healthy blood donors from which monocytes were isolated to culture DC and the remaining cells (mostly lymphocytes) were stored frozen as a source of autologous lymphocytes. DC were then incubated for 24 hr with P2+G, IPA1E2 or the IPA1E2-P2+G fusion polypeptide (SEQ ID NO: 58) in round bottom 96-well plates (5×10^4 cells/well) without adding additional adjuvants. The frozen lymphocytes were revived and labelled with CellTrace Violet (2.5 μM) for 10 min at 37° C. and then added to the DC wells at 2.5×10^5 cells/well (DC:T ratio=1:5). After 2 weeks of co-culture, the proliferation of CD4+ and CD8+ T cell and CD19+ B cell was analyzed by flow cytometry."}}, "note": "Entries after “also recorded” stand apart in the source; their conditions may differ. Ends that are not written are not given here."}
{"molecule": "RGGFGGRGGGRGGRGGFGGRG (NCL-P6)", "values": [{"measurement": "intracellular pool / cell penetration (CPP activity) in PBMC", "setting": "PBMC [1]", "value": "all lacked cell penetration; also recorded: diminished CPP activities"}, {"measurement": "TNFα induction from monocytes (7 NCL peptides)", "setting": "monocytes; 24 hr", "value": "induced TNFα; also recorded: minor adjuvant activity"}, {"measurement": "concentration at which saturated TLR2 binding was reached", "setting": "TLR2 [2]; TLR2 coated 2 μg/ml", "value": 80, "unit": "µg/mL"}, {"measurement": "peptide binding to coated TLR2", "setting": "TLR2 [2]; TLR2 coated 2 μg/ml", "value": "largely replicated NCL-P2 in TLR2 binding"}]}
{"molecule": "RGGGFGGRGGFGDRGGRGGRGG (FBRL-P1)", "values": [{"measurement": "PBMC activation (TNFα) by FBRL peptides", "setting": "PBMC [3]", "value": "activated PBMC"}]}
{"molecule": "RGGFGGGRGRGGGFRGRGRGG (FBRL-P2)", "values": [{"measurement": "PBMC activation (TNFα) by FBRL peptides", "setting": "PBMC [3]", "value": "activated PBMC"}]}
{"molecule": "GGFGGRGGGRGGFGGRGGGRGGRGGFGGRGRG (NCL-P1)", "values": [{"measurement": "intracellular pool / cell penetration (CPP activity) in PBMC", "setting": "PBMC [1]", "value": "accumulate intracellular pools"}, {"measurement": "cytokine induction, soluble versus coated (immobilized) form", "setting": "monocytes; monocytes, 24 hr", "value": "induced more cytokines than immobilized peptides"}, {"measurement": "TNFα induction from monocytes (7 NCL peptides)", "setting": "monocytes; 24 hr", "value": "induced TNFα"}, {"measurement": "TNFα induction from monocytes at lower concentrations", "setting": "monocytes; soluble peptide 10 and 20 μg/ml", "value": "induced little TNFα"}, {"measurement": "TNFα induction from monocytes at higher concentrations", "setting": "monocytes; soluble peptide 80 and 160 μg/ml", "value": "strongly induced TNFα production"}, {"measurement": "peptide binding to coated TLR2", "setting": "TLR2 [2]; TLR2 coated 2 μg/ml", "value": "dose-dependent and saturable binding to TLR2"}]}
{"molecule": "NCL-P3: control peptide covering the C-terminal 12 residues of NCL outside the GAR/RGG domain (DHKPQGKKTKFE; NCL-P3)", "values": [{"measurement": "intracellular pool / cell penetration (CPP activity) in PBMC", "setting": "PBMC [1]", "value": "no intracellular pool; also recorded: not a 12-AA non-GAR/RGG peptide"}, {"measurement": "TNFα induction from monocytes, all concentrations", "setting": "monocytes; soluble peptide 10 to 160 μg/ml, 24 hr", "value": "no TNFα induction"}, {"measurement": "peptide binding to coated TLR2", "setting": "TLR2 [2]; TLR2 coated 2 μg/ml", "value": "no detectable binding; also recorded: lacked TLR2 binding"}, {"measurement": "TLR2-mediated NF-κB activation by peptides", "setting": "TLR2 [4]", "value": "not observed"}]}
{"molecule": "NCL(698)-HA: NCL-HA mutant in which 12 amino acids were deleted from the C-terminal end", "values": [{"measurement": "TNFα and IL-1β production from monocytes", "setting": "monocytes; protein coated on plates, 24 hr, ELISA", "value": "continued to stimulate monocytes"}, {"measurement": "TLR2 binding to coated NCL-HA mutants (summary experiment)", "setting": "TLR2 [2]; protein coated 10 μg/ml, TLR2 2 μg/ml", "value": "bound"}]}
{"molecule": "B1", "values": [{"measurement": "binding result", "setting": "[5]", "value": "binds"}]}
{"molecule": "B2", "values": [{"measurement": "binding result", "setting": "[5]", "value": "no binding (tested: 200 µg/ml)"}]}
{"molecule": "B3", "values": [{"measurement": "binding result", "setting": "[5]", "value": "no binding (tested: 0.64 to 1,000 ng/ml)"}]}
{"molecule": "B4", "values": [{"measurement": "binding result", "setting": "[5]", "value": "binds"}]}
{"molecule": "B5", "values": [{"measurement": "T cell proliferation / activation induced by peptide-loaded DC", "setting": "[6]", "value": "significantly increased T cell proliferation"}]}
